Results published in PubChem BioAssay AID1794825.

Target: Sodium- and chloride-dependent glycine transporter 2 (Homo sapiens) (UniProt Q9Y345)
Assay: PubChem AID 1794825
Settings: HEK-293 SLC6A5 OE, FLIPR membrane potential dye

Chain of Sodium- and chloride-dependent glycine transporter 2 (Homo sapiens) (Q9Y345 whole entry, looked up): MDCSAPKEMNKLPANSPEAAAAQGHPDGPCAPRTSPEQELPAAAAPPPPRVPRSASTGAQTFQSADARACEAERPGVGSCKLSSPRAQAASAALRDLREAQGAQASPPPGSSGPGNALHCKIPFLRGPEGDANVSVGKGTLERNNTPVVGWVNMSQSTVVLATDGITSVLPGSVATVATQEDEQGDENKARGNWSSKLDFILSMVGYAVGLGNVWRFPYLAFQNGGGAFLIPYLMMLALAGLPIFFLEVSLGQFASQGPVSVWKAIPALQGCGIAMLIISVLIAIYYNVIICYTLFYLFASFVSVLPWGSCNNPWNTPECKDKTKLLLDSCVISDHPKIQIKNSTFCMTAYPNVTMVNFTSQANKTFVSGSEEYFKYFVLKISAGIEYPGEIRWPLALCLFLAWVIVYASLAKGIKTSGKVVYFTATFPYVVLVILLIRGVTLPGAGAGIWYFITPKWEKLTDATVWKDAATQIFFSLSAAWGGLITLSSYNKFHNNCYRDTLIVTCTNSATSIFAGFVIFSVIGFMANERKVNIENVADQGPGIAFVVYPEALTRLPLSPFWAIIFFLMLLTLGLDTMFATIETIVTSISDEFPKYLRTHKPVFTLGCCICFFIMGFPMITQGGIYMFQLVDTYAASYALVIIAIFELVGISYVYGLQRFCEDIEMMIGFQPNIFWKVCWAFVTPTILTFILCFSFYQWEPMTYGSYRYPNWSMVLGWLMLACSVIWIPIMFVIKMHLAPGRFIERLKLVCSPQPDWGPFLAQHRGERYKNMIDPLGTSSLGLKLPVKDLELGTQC

EC50: 128 µM
SMILES: NCC(=O)O
